Experimental data taken from patent US9532990B2 (Zhejiang DTRM Biopharma Co. Ltd., priority 2014, dated 2017).
Where two headings read alike, the source gives them in different places.

Target: BTK wild type (Homo sapiens (Human), UniProt Q06187)
Test: Inhibition assay of BTK kinase activity (HTRF)
Assay type: biochemical
Experimental: Inhibition Assay of BTK Kinase Activity:
The enzyme reaction mixture of BTK wild type standard HTRF assay contained 1 nM BTK wild type, 1 μM biotin-TK1 peptide, and 30 μM ATP in a buffer. The enzyme reaction were carried out at room temperature for 60 minutes. […] The plates were incubated at room temperature for 60 minutes and then read in the Envision plate reader.

[1] = all compounds with IC50 of less 10 nM, read-out: IC50 (BTK)

Sequence of BTK wild type (Q06187 whole entry): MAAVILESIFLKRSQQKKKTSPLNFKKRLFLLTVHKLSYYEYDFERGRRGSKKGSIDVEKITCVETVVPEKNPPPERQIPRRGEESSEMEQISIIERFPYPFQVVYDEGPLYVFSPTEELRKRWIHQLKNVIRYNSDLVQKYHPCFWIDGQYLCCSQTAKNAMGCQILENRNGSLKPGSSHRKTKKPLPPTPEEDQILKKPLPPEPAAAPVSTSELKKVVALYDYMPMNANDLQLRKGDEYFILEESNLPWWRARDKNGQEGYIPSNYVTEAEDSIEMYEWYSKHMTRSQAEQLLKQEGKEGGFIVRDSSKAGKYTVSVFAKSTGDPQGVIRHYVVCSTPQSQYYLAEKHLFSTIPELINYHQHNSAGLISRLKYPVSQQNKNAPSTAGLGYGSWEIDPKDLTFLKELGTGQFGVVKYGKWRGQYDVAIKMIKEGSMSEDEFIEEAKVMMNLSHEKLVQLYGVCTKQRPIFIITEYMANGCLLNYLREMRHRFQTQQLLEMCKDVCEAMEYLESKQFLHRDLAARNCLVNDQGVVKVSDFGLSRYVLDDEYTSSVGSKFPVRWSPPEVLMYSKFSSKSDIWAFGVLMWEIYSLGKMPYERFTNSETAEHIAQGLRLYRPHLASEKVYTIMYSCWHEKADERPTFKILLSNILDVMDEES

Cc1oncc1C(=O)N1CCCC(n2nc(-c3ccc(C(=O)c4cccc(F)c4)cc3F)c3c(N)ncnc32)C1 (centres unmarked) [Compound 6, (3-(4-amino-3-(2-fluoro-4-(3-fluorobenzoyl)phenyl)-1H-pyrazolo[3,4-d]pyrimidin-1-yl)piperidin-1-yl)(5-methylisoxazol-4-yl)methanone] was tested, and the IC50 (read-out: BTK IC50) was 138 nM.

C=CC(=O)N1CCC(Cn2nc(-c3ccc(Oc4c(F)c(F)cc(F)c4F)cc3F)c3c(N)ncnc32)CC1 [Compound 30, 1-(4-((4-amino-3-(2-fluoro-4-(2,3,5,6-tetrafluorophenoxy)phenyl)-1H-pyrazolo[3,4-d]pyrimidin-1-yl)methyl)piperidin-1-yl)prop-2-en-1-one] showed an IC50 (read-out: BTK IC50) of 24 nM.

With Nc1ncnc2c1c(-c1ccc(Oc3c(F)c(F)cc(F)c3F)cc1F)nn2C1CCCN(C(=O)CC(=O)C(F)(F)F)C1 (centres unmarked) [Compound 65, 1-(3-(4-amino-3-(2-fluoro-4-(2,3,5,6-tetrafluorophenoxy)phenyl)-1H-pyrazolo[3,4-d]pyrimidin-1-yl)piperidin-1-yl)-4,4,4-trifluorobutane-1,3-dione] the IC50 (read-out: BTK IC50) was 119 nM.

N#CCCN1CC[C@@H](n2nc(-c3ccc(Oc4c(F)c(F)cc(F)c4F)cc3F)c3c(N)ncnc32)C1 [Compound 114, 3-((R)-3-(4-amino-3-(2-fluoro-4-(2,3,5,6-tetrafluorophenoxy)phenyl)-1H-pyrazolo[3,4-d]pyrimidin-1-yl)pyrrolidin-1-yl)propanenitrile] was tested, and the IC50 (read-out: BTK IC50) was 50 nM.

Compound C=CC(=O)N1CCC(Cn2nc(-c3ccc(Oc4c(F)c(F)cc(F)c4F)cc3F)c3c(N)ncnc32)C1 (centres unmarked) [Compound 29, 1-(3-((4-amino-3-(2-fluoro-4-(2,3,5,6-tetrafluorophenoxy)phenyl)-1H-pyrazolo[3,4-d]pyrimidin-1-yl)methyl)pyrrolidin-1-yl)prop-2-en-1-one] has an IC50 (read-out: BTK IC50) of 26 nM.

With Nc1ncnc2c1c(-c1ccc(Oc3c(F)c(F)cc(F)c3F)cc1F)nn2C1CCCN(C(=O)c2cccnc2)C1 (centres unmarked) [Compound 60, (3-(4-amino-3-(2-fluoro-4-(2,3,5,6-tetrafluorophenoxy)phenyl)-1H-pyrazolo[3,4-d]pyrimidin-1-yl)piperidin-1-yl)(pyridin-3-yl)methanone] the IC50 (read-out: BTK IC50) was 576 nM.

For C=CC(=O)NCC(C)n1nc(-c2ccc(Oc3c(F)c(F)cc(F)c3F)cc2F)c2c(N)ncnc21 (centres unmarked) [Compound 84, N-(2-(4-amino-3-(2-fluoro-4-(2,3,5,6-tetrafluorophenoxy)phenyl)-1H-pyrazolo[3,4-d]pyrimidin-1-yl)propyl)acrylamide], the IC50 (read-out: BTK IC50) was 16 nM.

In the case of Nc1ncnc2c1c(-c1ccc(C(=O)c3cccc(F)c3)cc1F)nn2C1CCCN(C(=O)C2CO2)C1 (centres unmarked) [Compound 9, (3-(4-amino-3-(2-fluoro-4-(3-fluorobenzoyl)phenyl)-1H-pyrazolo[3,4-d]pyrimidin-1-yl)piperidin-1-yl)(oxiran-2-yl)methanone], the IC50 (read-out: BTK IC50) is reported as 83 nM.

Nc1ncnc2c1c(-c1ccc(Oc3c(F)c(F)cc(F)c3F)cc1F)nn2[C@@H]1CCN(C(=O)c2ncco2)C1 [Compound 109, ((R)-3-(4-amino-3-(2-fluoro-4-(2,3,5,6-tetrafluorophenoxy)phenyl)-1H-pyrazolo[3,4-d]pyrimidin-1-yl)pyrrolidin-1-yl)(oxazol-2-yl)methanone] showed an IC50 (read-out: BTK IC50) of 1280 nM.

For Nc1ncnc2c1c(-c1ccc(Oc3c(F)c(F)cc(F)c3F)cc1F)nn2[C@H]1CCCN(C(=O)CF)C1 [Compound 108, 1-((S)-3-(4-amino-3-(2-fluoro-4-(2,3,5,6-tetrafluorophenoxy)phenyl)-1H-pyrazolo[3,4-d]pyrimidin-1-yl)piperidin-1-yl)-2-fluoroethanone], the IC50 (read-out: BTK IC50) was 436 nM.

For C=CC(=O)N1CCCC(n2nc(-c3ccc(C(=O)c4ccc(F)cc4)cc3F)c3c(N)ncnc32)C1 (centres unmarked) [Compound 2, 1-(3-(4-amino-3-(2-fluoro-4-(4-fluorobenzoyl)phenyl)-1H-pyrazolo[3,4-d]pyrimidin-1-yl)piperidin-1-yl)prop-2-en-1-one], the IC50 (read-out: BTK IC50) was 5 nM.

For C=C(C)C(=O)N1CC[C@@H](n2nc(-c3ccc(Oc4c(F)c(F)cc(F)c4F)cc3F)c3c(N)ncnc32)C1 [Compound 105, 1-((R)-3-(4-amino-3-(2-fluoro-4-(2,3,5,6-tetrafluorophenoxy)phenyl)-1H-pyrazolo[3,4-d]pyrimidin-1-yl)pyrrolidin-1-yl)-2-methylprop-2-en-1-one], the IC50 (read-out: BTK IC50) was 589 nM.

With C=CC(=O)NCC1CCC(n2nc(-c3ccc(Oc4c(F)c(F)cc(F)c4F)cc3F)c3c(N)ncnc32)C1 (centres unmarked) [Compound 28, N-((3-(4-amino-3-(2-fluoro-4-(2,3,5,6-tetrafluorophenoxy)phenyl)-1H-pyrazolo[3,4-d]pyrimidin-1-yl)cyclopentyl)methyl)acrylamide] the IC50 (read-out: BTK IC50) was 7 nM.

For CC#CC(=O)N1CC[C@@H](n2nc(-c3ccc(Oc4cccc(F)c4)cc3F)c3c(N)ncnc32)C1 [Compound 123, 1-((R)-3-(4-amino-3-(2-fluoro-4-(3-fluorophenoxy)phenyl)-1H-pyrazolo[3,4-d]pyrimidin-1-yl)pyrrolidin-1-yl)but-2-yn-1-one], the IC50 [1] was < 10 nM.

Nc1ncnc2c1c(-c1ccc(Oc3c(F)c(F)cc(F)c3F)cc1F)nn2C1CCCN(C(=O)C2CNC(=O)S2)C1 (centres unmarked) [Compound 63, 5-(3-(4-amino-3-(2-fluoro-4-(2,3,5,6-tetrafluorophenoxy)phenyl)-1H-pyrazolo[3,4-d]pyrimidin-1-yl)piperidine-1-carbonyl)thiazolidin-2-one] was tested, and the IC50 (read-out: BTK IC50) was 454 nM.

For C=CC(=O)N[C@@H]1CC[C@@H](n2nc(-c3ccc(Oc4cccc(F)c4)cc3F)c3c(N)ncnc32)C1 [Compound 16, N-((1r,3r)-3-(4-amino-3-(2-fluoro-4-(3-fluorophenoxy)phenyl)-1H-pyrazolo[3,4-d]pyrimidin-1-yl)cyclopentyl)acrylamide], the IC50 [1] was < 10 nM and the IC50 (read-out: BTK IC50) was 3 nM.

With Nc1ncnc2c1c(-c1ccc(Oc3c(F)c(F)cc(F)c3F)cc1F)nn2C1CCC(N2C(=O)CSC2=O)CC1 (centres unmarked) [Compound 40, 3-(4-(4-amino-3-(2-fluoro-4-(2,3,5,6-tetrafluorophenoxy)phenyl)-1H-pyrazolo[3,4-d]pyrimidin-1-yl)cyclohexyl)thiazolidine-2,4-dione] the IC50 (read-out: BTK IC50) was 1640 nM.

With Nc1ncnc2c1c(-c1ccc(Oc3c(F)c(F)cc(F)c3F)cc1F)nn2[C@@H]1CCN(C(=O)C(=O)O)C1 [Compound 117, 2-((R)-3-(4-amino-3-(2-fluoro-4-(2,3,5,6-tetrafluorophenoxy)phenyl)-1H-pyrazolo[3,4-d]pyrimidin-1-yl)pyrrolidin-1-yl)-2-oxoacetic acid] the IC50 (read-out: BTK IC50) was 712 nM.

Nc1ncnc2c1c(-c1ccc(Oc3c(F)c(F)cc(F)c3F)cc1F)nn2CCCN1C(=O)C=CC1=O [Compound 38, 1-(3-(4-amino-3-(2-fluoro-4-(2,3,5,6-tetrafluorophenoxy)phenyl)-1H-pyrazolo[3,4-d]pyrimidin-1-yl)propyl)-1H-pyrrole-2,5-dione] gave an IC50 (read-out: BTK IC50) of 379 nM.

In the case of C=CC(=O)N[C@H]1CC[C@@H](n2nc(-c3ccc(Oc4c(F)c(F)cc(F)c4F)cc3F)c3c(N)ncnc32)C1 [Compound 26, N-((1s,3r)-3-(4-amino-3-(2-fluoro-4-(2,3,5,6-tetrafluorophenoxy)phenyl)-1H-pyrazolo[3,4-d]pyrimidin-1-yl)cyclopentyl)acrylamide], the IC50 (read-out: BTK IC50) is reported as 34 nM.

With C=CC(=O)N1CCCC(n2nc(-c3ccc(Oc4c(F)ccc(F)c4F)cc3F)c3c(N)ncnc32)C1 (centres unmarked) [Compound 21, 1-(3-(4-amino-3-(2-fluoro-4-(2,3,6-trifluorophenoxy)phenyl)-1H-pyrazolo[3,4-d]pyrimidin-1-yl)piperidin-1-yl)prop-2-en-1-one] the IC50 [1] was < 10 nM and the IC50 (read-out: BTK IC50) was 5 nM.

For Nc1ncnc2c1c(-c1ccc(Oc3c(F)c(F)cc(F)c3F)cc1F)nn2[C@@H]1CCN(C(=O)/C=C/c2ccccc2F)C1 [Compound 93, (E)-1-((R)-3-(4-amino-3-(2-fluoro-4-(2,3,5,6-tetrafluorophenoxy)phenyl)-1H-pyrazolo[3,4-d]pyrimidin-1-yl)pyrrolidin-1-yl)-3-(2-fluorophenyl)prop-2-en-1-one], the IC50 (read-out: BTK IC50) was 2650 nM.

Work on C=CC(=O)N1CCCC(n2nc(-c3ccc(C(=O)c4cccc(F)c4)c(F)c3)c3c(N)ncnc32)C1 (centres unmarked) [Compound 3, 1-(3-(4-amino-3-(3-fluoro-4-(3-fluorobenzoyl)phenyl)-1H-pyrazolo[3,4-d]pyrimidin-1-yl)piperidin-1-yl)prop-2-en-1-one] yielded an IC50 (read-out: BTK IC50) of 10 nM.

C=C(CN1CCCC(n2nc(-c3ccc(Oc4c(F)c(F)cc(F)c4F)cc3F)c3c(N)ncnc32)C1)C(=O)OCC (centres unmarked) [Compound 68, ethyl 2-((3-(4-amino-3-(2-fluoro-4-(2,3,5,6-tetrafluorophenoxy)phenyl)-1H-pyrazolo[3,4-d]pyrimidin-1-yl)piperidin-1-yl)methyl)acrylate] gave an IC50 (read-out: BTK IC50) of 279 nM.

In the case of C=CC(=O)N1CC[C@@H](n2nc(-c3ccc(C(=O)c4ccccc4F)cc3F)c3c(N)ncnc32)C1 [Compound 72, 1-((R)-3-(4-amino-3-(2-fluoro-4-(2-fluorobenzoyl)phenyl)-1H-pyrazolo[3,4-d]pyrimidin-1-yl)pyrrolidin-1-yl)prop-2-en-1-one], the IC50 [1] is reported as < 10 nM and the IC50 (read-out: BTK IC50) is reported as 1 nM.

For C=C(F)C(=O)N1CC[C@@H](n2nc(-c3ccc(Oc4c(F)c(F)cc(F)c4F)cc3F)c3c(N)ncnc32)C1 [Compound 106, 1-((R)-3-(4-amino-3-(2-fluoro-4-(2,3,5,6-tetrafluorophenoxy)phenyl)-1H-pyrazolo[3,4-d]pyrimidin-1-yl)pyrrolidin-1-yl)-2-fluoroprop-2-en-1-one], the IC50 [1] was < 10 nM and the IC50 (read-out: BTK IC50) was 3 nM.

C=C(C#N)C(=O)N1CCCC(n2nc(-c3ccc(Oc4c(F)c(F)cc(F)c4F)cc3F)c3c(N)ncnc32)C1 (centres unmarked) [Compound 49, 2-(3-(4-amino-3-(2-fluoro-4-(2,3,5,6-tetrafluorophenoxy)phenyl)-1H-pyrazolo[3,4-d]pyrimidin-1-yl)piperidine-1-carbonyl)acrylonitrile] was tested, and the IC50 (read-out: BTK IC50) was 509 nM.

In the case of C/C=C(\C(=O)OC)C(=O)N1CCCC(n2nc(-c3ccc(Oc4c(F)c(F)cc(F)c4F)cc3F)c3c(N)ncnc32)C1 (centres unmarked) [Compound 48, (Z)-methyl 2-(3-(4-amino-3-(2-fluoro-4-(2,3,5,6-tetrafluorophenoxy)phenyl)-1H-pyrazolo[3,4-d]pyrimidin-1-yl)piperidine-1-carbonyl)but-2-enoate], the IC50 (read-out: BTK IC50) is reported as 964 nM.
